The test system of data set [1] is P. aeruginosa PA14 exponential cells. The data set is described as follows: Survival of exponentially-growing cells (drop assay). In kind it is cell-based, Pseudomonas aeruginosa. Particulars: 100 μM. The method, then:
FIG. 2. NPIMA eradicates Escherichia coli, Pseudomonas aeruginosa, and Staphylococcus aureus exponential cells. Survival after 6 hr for (a) E. coli BW25113 with NPIMA and 5-iodoindole at 100 μM, (b) P. aeruginosa PA14 with NPIMA and 5-iodoindole at 100 μM, and (c) S. aureus with NPIMA and 5-iodoindole at 200 μM. Asterisk indicates no viable cells detected. NPIMA, 5-nitro-3-phenyl-1H-indol-2-yl-methylamine hydrochloride.
(§1) For bacterial viability, cells were washed twice with 0.85% NaCl, resuspended in 1×PBS, and cell counts were determined via the drop assay (Donegan, Matyac, Seidler, & Porteous, 1991). For human cell viability, pre-cultured human cancer HT-29 cells were dispensed in 98 μl in 96-well plates with approximately 5,000 cells/well. NPIMA was added (2 μl) to produce concentrations of 5, 10, 100, and 200 μM. For controls, Triton X-100 (positive control) and DMSO (negative solvent control), were used, and the medium was used for background. Plates were incubated in a humidified incubator (37° C., 5% CO2) for 24 hr. Cell viability was determined via a cell counting kit (CCK-8 Kit, ab228554; Abcam), and cytotoxicity was determined via the lactate dehydrogenase (LDH) assay (LDH Assay Kit, MK401; Takara).

For the next data set, the system named is E. coli BW25113. The data set is described as follows: Transmission electron microscopy (TEM). The data set is classed as cell-based, Escherichia coli. The following applies: 100 μM. The method, then: FIG. 6. NPIMA damages the Escherichia coli cell membrane. Transmission electron microscopic (TEM) images of E. coli BW25113 after NPIMA (100 μM) treatment for 40 min. Two representative images are shown. The arrow indicates membrane damage. NPIMA, 5-nitro-3-phenyl-1H-indol-2-ylmethylamine hydrochloride.
For transmission electron microscopy (TEM), E. coli BW25113 was grown to a turbidity of 0.8 at OD600, contacted with NPIMA at 100 μM for 0.75 hr in PBS, centrifuged at 8000 g, and resuspended in PBS. The samples were fixed with buffer (2.5% glutaraldehyde in 0.1M cacodylate buffer, pH 7.4) and negative stained with 2% uranyl acetate in the dark for 1 hr, then dehydrated. The sectioned specimens were stained again with uranyl acetate and lead citrate after dehydration and resin embedded. TEM images were obtained using a JEOL JEM 1200 EXII instrument.

In data set [2] the test system is P. aeruginosa PA14 exponentially-growing cells. The data set is described as follows: Killing at one MIC in PBS, NPIMA compared with cisplatin. The data set is classed as cell-based, Pseudomonas aeruginosa. Particulars: 3 hr.
Excerpt: (§2) FIG. 7. NPIMA compared width cisplatin for killing Pseudomonas aeruginosa, Escherichia coli, and Staphylococcus aureus. Survival of exponentially-growing cells of P. aeruginosa PA14 (a), E. coli (b), and S. aureus (c) treated with one MIC of NPIMA (♦) and cisplatin (●) for 3 hr in PBS. DMSO (▴) and NaClO4 (*) were used as a negative controls. MIC, minimum inhibitory concentration; NPIMA, 5-nitro-3-phenyl-1H-indol-2-yl-methylamine hydrochloride.
as §1

The test system of data set [3] is E. coli exponentially-growing cells. The data set is described as above. The data set is classed as cell-based, Escherichia coli. Particulars: 3 hr.
Excerpt: as §2, §1

For a further data set, the system named is human cancer HT-29 cells. In words: Viability (CCK-8) and cytotoxicity (LDH) assays. In kind it is cell-based. Particulars: 24 hr. As for the experimental part: FIG. 11. Cytotoxicity of NPIMA with HT-29 cells. (A) Cell viability was measured via a CCK-8 assay. (B) Cytotoxicity was measured with various concentrations of NPIMA […] for 24 h. Cell viability was measured at 450 nm, and cell toxicity was measured at 492 nm and a reference wavelength ([…]) was used.
as §1

The next data set concerns E. coli persister cells. In words: ChemBridge screen for persister cell killing. The data set is classed as cell-based, Escherichia coli. Particulars: 100 μM, 24 hr. As for the experimental part: FIG. 1. […] Escherichia coli persister cells were treated for 24 hr at 100 μM with: • 1: N-(3,4-dichlorophenyl)-N′-(3-fluorophenyl) thiourea; • 2: 2-({2-[(4-bromophenyl)amino]-4-quinazolinyl}amino)ethanol hydrochloride; • 3: 2-[(6-phenyl-2,3,4,9-tetrahydro-1H-carbazol-1-yl)amino] ethanol; • 4: 1-(3,6-dichloro-9H-carbazol-9-yl)-3-(2-methyl-1H-imidazol-1-yl)-2-propanol; • 5: N-[2-(4-fluorophenyl)ethyl]-N′-(4-nitrophenyl) thiourea; • 6: N-(4-chlorobenzyl)-N′-4-pyridinylthiourea; • 7: N′-(3,5-dichloro-2-hydroxybenzylidene)-2-oxo-4-phenyl-3-pyrrolidinecarbohydrazide; and • 8: [(5-nitro-3-phenyl-1H-indol-2-yl)methyl]amine hydrochloride (NPIMA, structure shown in inset).
To identify compounds that kill E. coli persister cells, 10,000 compounds of the DIVERset Library from ChemBridge (San Diego, CA) were tested by adding 4 μl of each (in DMSO, final concentration 100 μM) to 186 μl of LB in 96-well plates along with 10 μl of persister cells; the persister cells were added after the ChemBridge chemical since LB wakes persister cells (Kim, Yamasaki, et al., 2018). For the negative control, pure DMSO (final concentration 2 vol %) was used. The degree of inhibition was determined by the change in turbidity at 600 nm after 24 hr. The best 26 compounds were re-tested with the same conditions.
To screen directly for killing persister cells, a high-throughput approach using 96-well microtiter plates was devised that consisted of (a) washing persister cells formed from exponentially-growing cells using rifampicin pretreatment followed by ampicillin treatment, (b) adding 10 μl of the persister cells to 190 μl of LB containing one each of the 10,000 compounds of the DiverSet library dissolved in dimethyl sulfoxide (100 μM final concentration), and (c) monitoring for growth via change in turbidity for 24 hr. With this approach, we allowed for up to a 140-fold change in turbidity (0.005 could be increased to 0.69).

Take `Cl.NCc1[nH]c2ccc([N+](=O)[O-])cc2c1-c1ccccc1` [NPIMA, [(5-nitro-3-phenyl-1H-indol-2-yl)methyl]amine hydrochloride]: the “time to eradicate exponentially-growing P. aeruginosa PA14 cells” value in data set [1] came to 6 h. For the same compound, the “cell envelope damage by TEM” value in the data set on E. coli BW25113 is reported as “clear cell envelope damage”. The results for the “effectiveness relative to cisplatin” value in data set [2] and in data set [3] were “less effective” and “more effective than cisplatin”, respectively. Besides, the “toxicity (LDH and CCK-8)” value with human cancer HT-29 cells (5 μM) and in the data set on human cancer HT-29 cells (10 μM) was “not toxic” each time. Also, in the data set with human cancer HT-29 cells, the “concentrations showing toxicity in both tests” value was ≥ 50 µM. Moreover, the “change of turbidity during first and second screen” value with E. coli persister cells is on record as “reduced the turbidity”. In addition, the “persister killing, second screen (FIG. 1)” value in the data set on E. coli persister cells (hydrochloride) is “substantially more effective than the other compounds”; in the data set on E. coli persister cells (listed as 8, hydrochloride), “Most effective”.

The values are drawn from US12472185B2, “Methods for killing antibiotic tolerant bacteria” (THE PENN STATE RESEARCH FOUNDATION, priority 2020, dated 2025).
